In patent US10526319B2, “Halogenated quinazolin-THF-amines as PDE1 inhibitors” (H. Lundbeck A/S, priority 2014, dated 2020):

How the values were obtained:
Assay type in all cases: biochemical
Conditions in all cases: 15 nM tritium labelled cAMP, 1 h at room temperature
PDE1C = PDE1C (Homo sapiens, UniProt Q14123); test: PDE1 inhibition assay (SPA, tritium labelled cAMP), PDE1C
Experimental: (§1) PDE1A, PDE1B and PDE1C assays were performed as follows: the assays was performed in 60 μL samples containing a fixed amount of the PDE1 enzym1 (sufficient to convert 20-25% of the cyclic nucleotide substrate), a buffer (50 mM HEPES pH 7.6; 10 mM MgCl2; 0.02% Tween20), 0.1 mg/ml BSA, 15 nM tritium labelled cAMP and varying amounts of inhibitors. Reactions were initiated by addition of the cyclic nucleotide substrate, and reactions were allowed to proceed for 1 h at room temperature before being terminated through mixing with 20 μL (0.2 mg) yttrium silicate SPA beads (PerkinElmer). The beads were allowed to settle for 1 h in the dark before the plates were counted in a Wallac 1450 Microbeta counter. The measured signals were converted to activity relative to an uninhibited control (100%) and IC50 values were calculated using XlFit (model 205, IDBS).

PDE1A = PDE1A (Homo sapiens, UniProt P54750); test: PDE1 inhibition assay (SPA, tritium labelled cAMP), PDE1A
PDE1A, sequence (P54750 whole entry): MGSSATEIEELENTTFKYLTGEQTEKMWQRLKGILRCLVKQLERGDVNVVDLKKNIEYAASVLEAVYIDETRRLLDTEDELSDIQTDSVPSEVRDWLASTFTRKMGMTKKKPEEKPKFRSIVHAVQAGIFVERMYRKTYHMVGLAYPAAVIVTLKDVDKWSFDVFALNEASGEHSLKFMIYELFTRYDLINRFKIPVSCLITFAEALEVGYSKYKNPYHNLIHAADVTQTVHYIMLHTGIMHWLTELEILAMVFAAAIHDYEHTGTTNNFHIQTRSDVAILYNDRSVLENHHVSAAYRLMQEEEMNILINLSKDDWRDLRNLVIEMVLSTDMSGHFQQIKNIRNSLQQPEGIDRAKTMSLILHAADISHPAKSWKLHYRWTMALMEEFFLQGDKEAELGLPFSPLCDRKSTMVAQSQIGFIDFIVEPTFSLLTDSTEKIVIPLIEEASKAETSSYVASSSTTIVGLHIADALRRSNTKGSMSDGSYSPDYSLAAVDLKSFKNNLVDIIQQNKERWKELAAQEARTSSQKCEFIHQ
Experimental: as §1

PDE1B = PDE1B (Homo sapiens, UniProt Q01064); test: PDE1 inhibition assay (SPA, tritium labelled cAMP), PDE1B
PDE1B, sequence (Q01064 whole entry): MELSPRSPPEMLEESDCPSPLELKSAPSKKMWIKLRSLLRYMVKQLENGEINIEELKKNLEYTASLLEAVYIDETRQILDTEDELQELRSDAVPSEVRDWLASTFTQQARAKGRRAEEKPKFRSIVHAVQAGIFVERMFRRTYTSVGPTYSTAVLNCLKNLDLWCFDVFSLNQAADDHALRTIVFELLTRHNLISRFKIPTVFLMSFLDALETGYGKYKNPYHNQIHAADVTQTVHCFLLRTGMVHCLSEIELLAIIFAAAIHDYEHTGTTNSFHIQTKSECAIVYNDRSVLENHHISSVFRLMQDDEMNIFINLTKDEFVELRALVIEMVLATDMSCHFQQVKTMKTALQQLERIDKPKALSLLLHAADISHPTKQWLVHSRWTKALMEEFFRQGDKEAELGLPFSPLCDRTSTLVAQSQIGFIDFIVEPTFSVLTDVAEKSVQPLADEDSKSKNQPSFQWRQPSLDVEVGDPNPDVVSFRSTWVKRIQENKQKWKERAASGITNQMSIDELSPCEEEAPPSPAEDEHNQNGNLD
Experimental: as §1

PDE1C, sequence (Q14123 whole entry): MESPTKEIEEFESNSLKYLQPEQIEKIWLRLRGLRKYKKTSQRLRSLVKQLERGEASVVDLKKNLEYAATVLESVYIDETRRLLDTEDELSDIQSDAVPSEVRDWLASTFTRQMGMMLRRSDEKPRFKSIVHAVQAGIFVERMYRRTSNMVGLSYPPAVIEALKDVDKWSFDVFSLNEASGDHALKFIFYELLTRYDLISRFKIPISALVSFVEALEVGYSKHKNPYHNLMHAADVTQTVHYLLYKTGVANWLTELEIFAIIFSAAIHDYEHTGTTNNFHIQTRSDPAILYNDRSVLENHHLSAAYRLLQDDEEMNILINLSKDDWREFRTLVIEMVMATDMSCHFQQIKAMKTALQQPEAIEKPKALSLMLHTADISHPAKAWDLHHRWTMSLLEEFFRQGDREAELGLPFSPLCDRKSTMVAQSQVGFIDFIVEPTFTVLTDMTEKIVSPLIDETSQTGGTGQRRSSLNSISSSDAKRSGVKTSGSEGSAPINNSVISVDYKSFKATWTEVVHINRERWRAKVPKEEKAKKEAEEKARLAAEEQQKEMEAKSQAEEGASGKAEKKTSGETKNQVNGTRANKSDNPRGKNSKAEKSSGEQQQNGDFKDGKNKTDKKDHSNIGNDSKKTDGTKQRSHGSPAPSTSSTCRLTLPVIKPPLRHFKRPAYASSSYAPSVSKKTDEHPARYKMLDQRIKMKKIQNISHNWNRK

Compound	IC50 (PDE1C) [µM]	IC50 (PDE1A) [µM]	IC50 (PDE1B) [µM]
COc1ccc2c(NC3(C)CCOC3C)ncnc2c1F (single isomer, unassigned) [17 Stereoisomer 2]	0.022	0.073	0.005
COc1ccc2c(N(C)C3(C)CCOC3C)ncnc2c1Cl (single isomer, unassigned) [13 Stereoisomer 3]	0.005	0.085	0.007
COc1ccc2c(NC3(C)CCOC3)ncnc2c1Cl (single isomer, unassigned) [7 stereoisomer 1]	0.011	0.2	0.023
COc1ccc2c(N3CC[C@@H]4OCCC43)ncnc2c1Cl (single isomer, unassigned) [9 Stereoisomer 2]	0.55	2.26	1.2
COc1ccc2c(N(C)C3CCOC3C)ncnc2c1F (single isomer, unassigned) [18 Stereoisomer 4]	0.12	0.515	0.06
